Reference: patent US20240010684A1, “MASP INHIBITORY COMPOUNDS AND USES THEREOF” (BAYER AKTIENGESELLSCHAFT, priority 2020, published 2024)
Like-named read-outs stand apart in the source and are kept apart here. Where a SMILES comes first, the peptide text is derived from it. Bridges are numbered along the chain shown (N, C = ends). [ ]: non-standard residue; d: D form. Oic = O=C(O)[C@@H]1C[C@@H]2CCCC[C@@H]2N1; tBuAla = CC(C)(C)C[C@H](N)C(=O)O; Pen = CC(C)(S)[C@H](N)C(=O)O; Ahx = NCCCCCC(=O)O

Legend:
human MASP1 = human MASP1 (Homo sapiens (Human), UniProt P48740); experiment: Biochemical human MASP1 assay (FRET substrate)
Outline: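 IC50 derived from % inhibition versus compound concentration, with fluorescence increase read at 320/420 nm after 60-120 min at 32 C. Enzyme: HEK293-secreted, His-tagged human MASP1 fragment 297-699 at 20 nM in HEPES pH 8,0 buffer with NaCl, CHAPS, glutathione; substrate ABZ-peptide-Lys(Dnp)-NH2 added as 20 μM solution.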

human MASP2 = human MASP2 (Homo sapiens (Human), UniProt O00187); experiment: Biochemical human MASP2 assay (FRET substrate)
Outline: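 IC50 came from % inhibition across compound concentrations, with fluorescence (ex 340 nm, em 490 nm) read after 60-120 min at 32 C. Substrate was a DABCYL FRET peptide, added as a 60 μM solution, cleaved by HEK293-expressed, Ni-NTA-purified mature recombinant human MASP2.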

[1] = tested on: Human C3-DEPOSITION SERUM; experiment: C3 deposition assay, human serum on mannan-coated plates; format: biochemical; conditions: Average IC50, read-out: Human C3-DEPOSITION SERUM IC50
Outline: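 Plates coated overnight at 4° C with S. cerevisiae mannan (10 μg/mL, pH 9.6), blocked with 1% BSA in TBS 2 h at 37° C; washes in TBS/0.05% Tween 20/5 mM CaCl2. Antibodies diluted in wash buffer with 0.5% BSA. Colorimetric read-out at 450 nm.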

rat MASP1 = rat MASP1 (Rattus norvegicus (Rat), UniProt Q8CHN8); experiment: Biochemical rat MASP1 assay (FRET substrate)
Excerpt: A truncated cDNA sequence of rat MASP1encoding the fragment corresponding to the amino acids 302-704 with a C-terminal His Tag and N-terminal Ig-kappa secretion signal (SEQ ID No: 4) was subcloned into the mammalian expression vector pcDNA3.1 (Invitrogen).
(§1) The MASP1 or MASP2 expression vectors were transfected into the HEK293 (ATCC No. CRL-1573) cell line using Lipofectamine LTX® Reagent (Thermo-Fischer), as described by the manufacturer. The mature form of the recombinant rat MASP1 and MASP2 proteases were secreted into the culture medium. The MASP1 and MASP2 proteins were purified from the conditioned media by affinity chromatography on Ni-NTA Superflow resin (Qiagen) as described by the manufacturer.
4.2 Biochemical Rat MASP1 Assay.
Recombinant rat MASP1 enzyme produced in the HEK 293 cells was diluted in the reaction buffer (50 mM HEPES pH 8,0; 100 mM NaCl; 0,01% CHAPS; 0.5 mM Gluthathione) to the concentration of 4 nM and 25 μl was transferred into each single well of 384-well white microtiter plate (Greiner Bio One 781075). 1 μl of the inhibitor compound solution (dissolved in DMSO, at the corresponding concentration) or pure DMSO as a control was added to the same wells. The enzymatic reaction was initiated by addition of 25 μl of 40 μM solution of the FRET substrate Dabcyl-[…]-Glu(Edans)-NH2; (Dabcyl-4-((4-(dimethylamino)phenyl)azo)benzoic acid; Edans-5-[(2-Aminoethyl) amino]naphthalene-1-sulfonyl; custom synthesis by Jerini Peptide Technologies, Berlin) in the reaction buffer. The microtiter plate was incubated for 60-120 min at the temperature of 32 C. The increase of fluorescence intensity was measured in appropriate fluorescence plate reader (e.g. TECAN Ultra) using excitation wavelength of 340 nm and emission wavelength of 490 nm. IC50 values were calculated from percentage of inhibition of rat […] activity as a function of test compound concentration.

rat MASP2 = rat MASP2 (Rattus norvegicus (Rat), UniProt Q9JJS8); experiment: Biochemical rat MASP2 assay (FRET substrate)
Excerpt: as §1, with “The mature form of the recombinant rat MASP1 and MASP2 proteases were secreted into the culture medium.” left out, “M[…]” for “MASP2 proteins”

[2] = Average IC50, recombinant human MASP1, read-out: human MASP1 IC50
[3] = Average IC50, recombinant human MASP2, read-out: human MASP2 IC50
[4] = Average IC50, recombinant rat MASP1, read-out: rat MASP1 IC50
[5] = Average IC50, recombinant rat MASP2, read-out: rat MASP2 IC50

Sequence of human MASP1 (P48740 other isoform, or with tags, fused parts or gaps): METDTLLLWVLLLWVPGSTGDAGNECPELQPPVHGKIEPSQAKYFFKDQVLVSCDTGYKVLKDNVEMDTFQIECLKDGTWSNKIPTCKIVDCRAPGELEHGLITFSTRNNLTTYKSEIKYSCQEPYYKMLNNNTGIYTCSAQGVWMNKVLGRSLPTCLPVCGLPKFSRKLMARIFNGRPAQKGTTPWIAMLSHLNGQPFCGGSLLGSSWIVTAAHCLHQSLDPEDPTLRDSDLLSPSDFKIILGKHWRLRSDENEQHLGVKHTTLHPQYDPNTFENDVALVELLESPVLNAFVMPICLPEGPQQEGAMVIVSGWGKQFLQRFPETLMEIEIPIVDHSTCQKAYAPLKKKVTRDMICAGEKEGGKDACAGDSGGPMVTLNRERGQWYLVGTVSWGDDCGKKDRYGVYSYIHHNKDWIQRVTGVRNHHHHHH
Sequence of rat MASP2 (Q9JJS8 other isoform, or with tags, fused parts or gaps): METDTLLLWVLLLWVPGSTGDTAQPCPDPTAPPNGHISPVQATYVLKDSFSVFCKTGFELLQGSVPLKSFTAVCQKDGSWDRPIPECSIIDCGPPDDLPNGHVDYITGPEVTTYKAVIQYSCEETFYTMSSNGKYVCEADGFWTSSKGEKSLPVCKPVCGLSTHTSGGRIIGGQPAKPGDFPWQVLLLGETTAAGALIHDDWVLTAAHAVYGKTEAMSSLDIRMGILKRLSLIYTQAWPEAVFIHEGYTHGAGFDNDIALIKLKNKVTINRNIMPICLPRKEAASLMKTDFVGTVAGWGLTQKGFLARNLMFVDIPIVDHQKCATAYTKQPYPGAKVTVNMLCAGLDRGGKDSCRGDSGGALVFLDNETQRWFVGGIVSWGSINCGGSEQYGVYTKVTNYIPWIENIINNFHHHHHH
Sequence of rat MASP1 (Q8CHN8 other isoform, or with tags, fused parts or gaps): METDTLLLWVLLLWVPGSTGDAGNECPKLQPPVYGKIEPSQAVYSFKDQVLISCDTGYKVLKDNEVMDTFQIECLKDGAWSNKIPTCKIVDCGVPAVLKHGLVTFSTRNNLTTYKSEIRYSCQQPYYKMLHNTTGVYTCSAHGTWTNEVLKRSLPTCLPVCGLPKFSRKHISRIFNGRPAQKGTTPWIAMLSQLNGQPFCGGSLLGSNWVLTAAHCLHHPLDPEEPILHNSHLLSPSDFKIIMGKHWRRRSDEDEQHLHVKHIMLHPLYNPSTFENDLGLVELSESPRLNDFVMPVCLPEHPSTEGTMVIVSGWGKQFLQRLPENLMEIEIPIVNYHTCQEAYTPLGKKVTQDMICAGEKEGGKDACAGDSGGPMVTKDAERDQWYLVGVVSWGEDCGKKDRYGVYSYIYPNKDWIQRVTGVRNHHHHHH
Sequence of human MASP2 (O00187 other isoform, or with tags, fused parts or gaps): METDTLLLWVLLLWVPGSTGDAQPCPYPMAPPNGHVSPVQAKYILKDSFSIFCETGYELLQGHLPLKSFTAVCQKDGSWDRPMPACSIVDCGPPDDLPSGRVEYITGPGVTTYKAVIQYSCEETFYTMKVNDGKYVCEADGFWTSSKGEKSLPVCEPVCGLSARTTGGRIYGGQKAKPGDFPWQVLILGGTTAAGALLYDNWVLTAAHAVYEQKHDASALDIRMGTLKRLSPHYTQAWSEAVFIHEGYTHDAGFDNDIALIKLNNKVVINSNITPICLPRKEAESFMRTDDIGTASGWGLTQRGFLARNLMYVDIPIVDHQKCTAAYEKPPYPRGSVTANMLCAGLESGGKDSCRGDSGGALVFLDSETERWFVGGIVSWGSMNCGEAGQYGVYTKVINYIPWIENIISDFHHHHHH

Structure (SMILES) | IC50 (human MASP1; [2]) [nM] | IC50 (human MASP2; [3]) [nM] | IC50 [1] [nM] | IC50 (rat MASP1; [4]) [nM] | IC50 (rat MASP2; [5]) [nM] | IC50 (human MASP1) [nM] | IC50 (human MASP2) [nM] | IC50 (rat MASP1) [nM] | IC50 (rat MASP2) [nM]
CC[C@H](C)[C@@H]1NC(=O)c2ccc(cc2)CNC(=O)CCCCCNC(=O)[C@@H]2CCCN2C(=O)[C@H]([C@@H](C)CC)NC(=O)[C@H]2NC(=O)[C@H]([C@@H](C)CC)NC(=O)[C@@H]3CCCN3C(=O)[C@@H]3CCCN3C(=O)[C@H](CC(C)(C)C)NC(=O)[C@H](CO)NC(=O)[C@H](CCCNC(=N)N)NC(=O)[C@H](CO)NC(=O)[C@H](CSSC2(C)C)NC1=O [Example 68, N-{3-[(1R,4S,7S,13S,19S,22S,25S,28S,31R,34S,51S,57S)-4,34,57-tri[(2S)-butan-2-yl]-19-(2,2-dimethylpropyl)-22,28-bis(hydroxymethyl)-60,60-dimethyl-3,6,12,18,21,24,27,30,33,36,43,50,56,59-tetradecaoxo-61,62-dithia-2,5,11,17,20,23,26,29,32,35,42,49,55,58-tetradecaazahexacyclo[29.28.4.2^37,400.0^7,110.0^13,170.0^51,55]pentahexaconta-37,39,64-trien-25-yl]propyl}guanidine] | – | – | – | – | – | 6.1 | 2.57 | 30.8 | 2.97
CC[C@H](C)[C@@H]1NC(=O)[C@H](C)NC(=O)CCCCCNC(=O)[C@H]([C@@H](C)CC)NC(=O)[C@H]2NC(=O)[C@H]([C@@H](C)CC)NC(=O)[C@@H]3CCCN3C(=O)[C@@H]3CCCN3C(=O)[C@H](CC(C)(C)C)NC(=O)[C@H](CO)NC(=O)[C@H](CCCNC(=N)N)NC(=O)[C@H](CO)NC(=O)[C@H](CSSC2(C)C)NC1=O [Example 72, N-{3-[(5aS,11S,14S,17S,20S,23R,26S,29S,39S,42R,45S,47aS)-26,39,45-tri[(2S)-butan-2-yl]-11-(2,2-dimethylpropyl)-14,20-bis(hydroxymethyl)-29,48,48-trimethyl-5,10,13,16,19,22,25,28,31,38,41,44,47-tridecaoxohexatetracontahydro-5H-23,42-(methanodithiomethano)dipyrrolo[2,1-1:2′,1′-o][1,4,7,10,13,16,19,22,25,28,31,34,37]tridecaazacyclotritetracontin-17-yl]propyl}guanidine] (cyclo(AICSRS[tBuAla]PPI[Pen]I[Ahx]); disulfide 3-11) | 6.3 | 48 | – | 85 | 14 | – | – | – | –
CC[C@H](C)[C@@H]1NC(=O)CNC(=O)[C@H](CC(=O)O)NC(=O)[C@@H]2CCCN2C(=O)[C@H]([C@@H](C)CC)NC(=O)[C@@H]2CSSC[C@H](NC1=O)C(=O)N[C@@H](CO)C(=O)N[C@@H](CCCNC(=N)N)C(=O)N[C@@H](CO)C(=O)N[C@@H](CC(C)C)C(=O)N1CCC[C@H]1C(=O)N1CCC[C@H]1C(=O)N[C@@H]([C@@H](C)CC)C(=O)N2 [Ref. No 7, reference compound] (cyclo(CIPDGICSRSLPPI); disulfide 1-7) | 145 | 895 | – | 1000 | 232 | – | – | – | –
CC[C@H](C)[C@@H]1NC(=O)[C@@H]2CCCN2C(=O)[C@@H]2CCCN2C(=O)[C@H]([C@@H](C)CC)NC(=O)[C@@H]2CSSC[C@H](NC(=O)[C@H]([C@@H](C)O)NC(=O)[C@H](CCCCN)NC(=O)[C@H](CO)NC1=O)C(=O)N[C@@H](CCCNC(=N)N)C(=O)NCC(=O)N[C@@H](CC(=O)O)C(=O)N1CCC[C@H]1C(=O)N[C@@H](Cc1ccccc1)C(=O)N2 [Ref. No 12, reference compound] (cyclo(RGDPFCIPPISKTC); disulfide 6-14) | 4800 | 5000 | – | 1000 | 1000 | – | – | – | –

Further compounds by falling IC50 (human MASP1; [2]), results first:

IC50 (human MASP1; [2]) [nM] | IC50 (human MASP2; [3]) [nM] | IC50 [1] [nM] | IC50 (rat MASP1; [4]) [nM] | IC50 (rat MASP2; [5]) [nM] | Structure (SMILES) | IC50 (human MASP1) [nM] | IC50 (human MASP2) [nM] | IC50 (rat MASP1) [nM] | IC50 (rat MASP2) [nM]
7.9 | 9.3 | 23.7 | 79 | 11.6 | CC[C@H](C)[C@@H]1NC(=O)CCCCCNC(=O)[C@H]([C@@H](C)CC)NC(=O)[C@H]2NC(=O)[C@H]([C@@H](C)CC)NC(=O)[C@@H]3CCCN3C(=O)[C@@H]3CCCN3C(=O)[C@H](CC(C)(C)C)NC(=O)[C@H](CO)NC(=O)[C@H](CCCNC(=N)N)NC(=O)[C@H](CO)NC(=O)[C@H](CSSC2(C)C)NC1=O [Example 52, N-{3-[(5aS,11S,14S,17S,20S,23R,26S,36S,39R,42S,44aS)-26,36,42-tri[(2S)-butan-2-yl]-11-(2,2-dimethylpropyl)-14,20-bis(hydroxymethyl)-45,45-dimethyl-5,10,13,16,19,22,25,28,35,38,41,44-dodecaoxodotetracontahydro-1H,5H-23,39-(methanodithiomethano)dipyrrolo[2,1-1:2′,1′-o][1,4,7,10,13,16,19,22,25,28,31,34]dodecaazacyclotetracontin-17-yl]propyl}guanidine] (cyclo([Ahx]ICSRS[tBuAla]PPI[Pen]I); disulfide 3-11) | – | – | – | –
7.2 | 14 | – | 27 | 1.4 | CC[C@H](C)[C@@H]1NC(=O)CCCCCNC(=O)CC[C@@H](C(N)=O)NC(=O)[C@@H]2CCCN2C(=O)[C@H]([C@@H](C)CC)NC(=O)[C@H]2NC(=O)[C@H]([C@@H](C)CC)NC(=O)[C@@H]3C[C@@H]4CCCC[C@@H]4N3C(=O)[C@@H]3CCCN3C(=O)[C@H](CC(C)C)NC(=O)[C@H](CO)NC(=O)[C@H](CCCNC(=N)N)NC(=O)[C@H](CO)NC(=O)[C@H](CSSC2(C)C)NC1=O [Example 75] ([Ahx]ICSRSLP[Oic]I[Pen]IPE-NH2; disulfide 3-11; lactam N-14) | – | – | – | –
6 | 75 | 33.6 | 44 | 8 | CC[C@H](C)[C@@H]1NC(=O)CNC(=O)CNC(=O)[C@H](C)NC(=O)[C@@H](CC(=O)O)NC(=O)[C@@H]2CCCN2C(=O)[C@H]([C@@H](C)CC)NC(=O)[C@H]2NC(=O)[C@H]([C@@H](C)CC)NC(=O)[C@@H]3CCCN3C(=O)[C@@H]3CCCN3C(=O)[C@H](CC(C)(C)C)NC(=O)[C@H](CO)NC(=O)[C@H](CCCNC(=N)N)NC(=O)[C@H](CO)NC(=O)[C@H](CSSC2(C)C)NC1=O [Example 39] (cyclo(AGGICSRS[tBuAla]PPI[Pen]IP[dD]); disulfide 5-13) | – | – | – | –
4.1 | 17 | 3.3 | 63 | 24 | CC[C@H](C)[C@@H]1NC(=O)CCCNC(=O)[C@H](CC(=O)O)NC(=O)[C@@H]2CCCN2C(=O)[C@H]([C@@H](C)CC)NC(=O)[C@H]2NC(=O)[C@H]([C@@H](C)CC)NC(=O)[C@@H]3CCCN3C(=O)[C@@H]3CCCN3C(=O)[C@H](CC(C)(C)C)NC(=O)[C@H](CO)NC(=O)[C@H](CCCNC(=N)N)NC(=O)[C@H](CO)NC(=O)[C@H](CSSC2(C)C)NC1=O [Example 35] | – | – | – | –
